Results reported in patent US20070129430A1, “Agent for enhancing the production of collagen, their preparation and use” (priority 2003, published 2007).

What was measured:
NHDF cells = test: collagen assay: collagen production level of NHDF cells (Sircol Soluble Collagen Assay Kit); assay type: cell-based, human; details: for concentration dependence of the action of enhancing collagen production (FIG. 3) / order of the levels of action of enhancing collagen production next to 10-HDA (FIG. 3): 0.02 to 1.5 mM fatty acid with 50 μM AA2G; for action of enhancing collagen production (FIG. 1): 5 days culture; for action of enhancing the collagen production by L-ascorbic acid: used in combination with L-ascorbic acid
Experimental: NHDF cells, a human fibroblast, were seeded in a 96-well microplate (commercialized by Becton Dickinson, N.J., USA) with […] (designated as “DMEM medium” hereinafter, commercialized by Nissui Pharmaceutical Co., Ltd., Tokyo, Japan)(pH 7.1 to 7.4), supplemented with 10% (v/v) fetal calf serum and an adequate amount of penicillin, to give a cell density of 2.5×10^4 cells/well, and incubated at 37° C. for 24 hours under a 5% (v/v) CO2 condition. Thereafter, the supernatant was replaced with 200 μl of a DMEM medium supplemented with a sample having a prescribed concentration and/or 50 μM of L-ascorbic acid 2-glucoside (a product name of “AA2G” with a purity of 98.0% or over, produced by Hayashibara Biochemical Laboratories, Inc., Okayama, Japan), and further cultured for another five days. After completion of the culture, the collagen production level from cells in each well of the microplate was quantified by using “Sircol™ Soluble Collagen Assay Kit”, commercialized by Biocolar Ltd., Northern Ireland.
The action of enhancing the collagen production by 10-HDA was examined by the collagen assay shown in Experiment 1. In the collagen assay, 150 μg/ml of 10-HDA and/or a DMEM medium containing 50 μM of the same AA2G as used in Experiment 1 were used to examine the action of enhancing the collagen production by 10-HDA. As a control, there were provided two systems with 50 μM of AA2G or a DMEM medium free of AA2G, both of which were free of sample. The results are in FIG. 1.
The relationship between the concentration of 10-HDA and the action of enhancing collagen production was also studied. In the collagen assay, using a DMEM medium containing 0 to 300 μg/ml of 10-HDA as a sample and 50 μM of AA2G, the action of enhancing the collagen production by 10-HDA was examined. As a control, a DMEM medium containing 50 μM of AA2G free of sample was provided. The results are in FIG. 2.
The results are in FIG. 3.
To examine the influence of 10-HDA on the action of enhancing the collagen production by L-ascorbic acid or AA2G, the following experiment was conducted: In the collagen assay shown in Experiment 1, the levels of collagen production in cell culture by L-ascorbic acid or 10-HDA were compared and analyzed using a DMEM medium containing as a sample 0, 0.1, 0.2 or 0.5 mg/ml of 10-HDA and 50 μM of L-ascorbic acid or AA2G as L-ascorbic acids in terms of L-ascorbic acid, and another DMEM medium containing as a sample 0, 0.1, 0.2 or 0.5 mg/ml of 10-HDA but free of L-ascorbic acids. The results are in FIG. 4.

[1] = test system: TGF-β production in human fibroblasts (NHDF cells); test: TGF-β production in human fibroblasts (TGF-β1 Emax ImmunoAssay System); assay type: cell-based; details: for enhancement of TGF-β production: concrete data not shown; for TGF-β production level: 24 hours, culture supernatant
Experimental: NHDF cells, a human fibroblast, commercialized by Kurabo Industries Ltd., Okayama, Japan, were seeded in 96-well microplates (commercialized by Becton Dickinson, N.J., USA) with a DMEM medium supplemented with 10% (v/v) fetal calf serum to give a cell density of 2.5×10^4 cells/well, and incubated for 24 hours under a 5% (v/v) CO2 condition. Thereafter, the supernatant in each microplate was removed, replaced with a fresh DMEM medium containing 0, 0.5 or 1.5 mM of 10-HDA and 0.2 μg/ml of AA2G, and cultured for 24 hours. After completion of the culture, the level of TGF-β in a supernatant of each well of the microplates was quantified by using “TGF-β1 E MAX IMMUNO ASSAY SYSTEM”, commercialized by Promega Corp., Wis., USA, and the data were statistically handled.

In the case of `O=C(O)CCCCCCCCCO` [10-hydroxydecanoic acid], the “concentration dependence of the action of enhancing collagen production (FIG. 3)” value (NHDF cells) is reported as “roughly in a concentration dependent manner”, the “order of the levels of action of enhancing collagen production next to 10-HDA (FIG. 3)” value (NHDF cells) is reported as “in the order of 10-hydroxydecanoic acid, 2-decenoic acid, decanoic acid, and sebacic acid” and the “enhancement of TGF-β production” value [1] is reported as “also enhance TGF-β production”.

With `O=C(O)CCCCCCCCC(=O)O` [sebacic acid] the “enhancement of TGF-β production” value [1] was “also enhance TGF-β production”.

With `CCCCCCCCCC(=O)O` [decanoic acid] the “enhancement of TGF-β production” value [1] was “also enhance TGF-β production”.

In the case of `CCCCCCCC=CC(=O)O` [2-decenoic acid], the “concentration dependence of the action of enhancing collagen production (FIG. 3)” value (NHDF cells) is reported as “roughly in a concentration dependent manner”, the “order of the levels of action of enhancing collagen production next to 10-HDA (FIG. 3)” value (NHDF cells) is reported as “in the order of 10-hydroxydecanoic acid, 2-decenoic acid, decanoic acid, and sebacic acid” and the “enhancement of TGF-β production” value [1] is reported as “also enhance TGF-β production”.

In the case of `O=C1O[C@H]([C@@H](O)CO)C(O)=C1O[C@H]1O[C@H](CO)[C@@H](O)[C@H](O)[C@H]1O` [AA2G, L-ascorbic acid 2-glucoside], the “action of enhancing collagen production of L-ascorbic acid derivatives used in combination with fatty acids” value (NHDF cells; in combination with fatty acids such as 10-HDA, concrete data not shown) is reported as “more remarkable action of enhancing collagen production”.

`O=C(O)C=CCCCCCCCO` [10-HDA, 10-hydroxy-2-decenoic acid] was tested, and the “action of enhancing collagen production (FIG. 4)” value (NHDF cells; 0, 0.1, 0.2 or 0.5 mg/ml 10-HDA in the presence of 50 μM AA2G (in terms of L-ascorbic acid)) was “action of enhancing collagen production in a concentration dependent manner”, the “action of enhancing collagen production (FIG. 4)” value (NHDF cells; 0, 0.1, 0.2 or 0.5 mg/ml 10-HDA in the presence of 50 μM L-ascorbic acid) was “action of enhancing collagen production in a concentration dependent manner” and the “concentration dependence of the action of enhancing collagen production (FIG. 2)” value (NHDF cells; 0 to 300 μg/ml 10-HDA with 50 μM AA2G) was “concentration-dependent action of enhancing collagen production”. The “action of enhancing collagen production (FIG. 1)” value (NHDF cells; 150 μg/ml 10-HDA in combination with 50 μM AA2G) was “distinct action of enhancing collagen production”, the “action of enhancing collagen production (FIG. 1)” value (NHDF cells; 150 μg/ml 10-HDA, absence of AA2G) was “did not show the action of enhancing collagen production” and the “action of enhancing collagen production (FIG. 3)” value (NHDF cells; 0.02, 0.06, 0.17, 0.5 or 1.5 mM fatty acid with 50 μM AA2G) was “significantly high action of enhancing collagen production”. For the same molecule, the “action of enhancing collagen production with AA2G relative to that attained with L-ascorbic acid (FIG. 4)” value (NHDF cells; 10-HDA with 50 μM AA2G versus 50 μM L-ascorbic acid) was “about two-times higher”, the “action of inducing collagen production when used alone” value (NHDF cells; used alone, without L-ascorbic acid) was “did not show an action of inducing collagen production” and the “action of enhancing the collagen production by L-ascorbic acid” value (NHDF cells) was “exhibited an action of enhancing the collagen production by L-ascorbic acid”. For the same molecule, the “action of enhancing the collagen production by L-ascorbic acid” value (NHDF cells; listed as Ingredient X) was “This result coincided with that of Ingredient X”, the “concentration giving maximum action of enhancing collagen production (FIG. 3)” value (NHDF cells; with 50 μM AA2G) was ≥ 0.17 mM and the TGF-β production level ([1]; 0.5 mM 10-HDA with 0.2 μg/ml AA2G) was 292 ± 68 pg/mL. The TGF-β production level ([1]; 1.5 mM 10-HDA with 0.2 μg/ml AA2G) was 378 ± 74 pg/mL and the “enhancement of TGF-β production in human fibroblasts” value ([1]; in the presence of AA2G, 0 to 1.5 mM) was “enhances the TGF-β production in human fibroblasts in a concentration dependent manner”.
